Measurements taken from US11684603B2, “Neuraminidase inhibition to improve glycocalyx volume and function to ameliorate cardiovascular diseases in pathologies associated with glycocalyx damage” (priority 2017, dated 2023).

Tests used:
glycocalyx = conditions: patients with familial hypercholesterolemia, short term treatment; cited from earlier work
isolated aortas = assay: Atomic force microscopy of aortic endothelial stiffness in treated db/db mice; format: in vivo; conditions: 5 mg twice a day via inhalation for 5 days, vs vehicle
Source text: (§1) Data represent mean+/−SEM, *P<0.05, determined by two-tailed Student t test.

human endothelial cells = assay: Wheat Germ Agglutinin (WGA) staining of the glycocalyx of cultured human endothelial cells; format: cell-based; conditions: neuraminidase plus Zanamivir for 1 hour
femoral arteries [1] = assay: Flow mediated dilation in isolated femoral arteries from treated db/db mice; format: in vivo; conditions: 5 mg twice a day via inhalation for 5 days, vs placebo control; increasing shear stress
Source text: Vessels were pre-constricted with phenylephrine and exposed to increasing shear stress (dynes/cm^2) to assess flow mediated dilation. […] Data represent mean+/−SEM, *P<0.05, determined by two-tailed Student t test.

femoral arteries [2] = assay: Vasodilation of pre-constricted femoral arteries from treated db/db mice to insulin, acetylcholine or sodium nitroprusside; format: in vivo; conditions: 5 mg twice a day via inhalation for 5 days, vs vehicle cohort
Source text: In a separate set of experiments, vessels were pre-constricted and exposed to increasing concentrations of insulin (FIG. 8C) or endothelium-dependent vasodilator, acetylcholine (FIG. 8D). […] Data represent mean+/−SEM, *P<0.05, determined by two-tailed Student t test.
as §1

Row | Structure (SMILES) | glycocalyx volume (glycocalyx) | plasma hyaluronidase activity (glycocalyx) | aortic endothelial stiffness (isolated aortas) | effect on the neuraminidase-induced reduction in WGA staining (human endothelial cells) | flow mediated dilation (femoral arteries [1]) | endothelial dependent vasodilatory response to acetylcholine (femoral arteries [2]; increasing concentrations of acetylcholine) | endothelial dependent vasodilatory response to insulin (femoral arteries [2]; increasing concentrations of insulin)
1 | CC(C)c1nc(N(C)S(C)(=O)=O)nc(-c2ccc(F)cc2)c1/C=C/[C@@H](O)C[C@@H](O)CC(=O)O [Rosuvastatin] | partially restored glycocalyx volume | increase in plasma hyaluronidase activity |  |  |  |  | 
2 | CC(=O)NC1C(NC(=N)N)C=C(C(=O)O)OC1C(O)C(O)CO (stereo not shown) [Zanamivir, 5-acetamido-4-guanidino-6-(1,2,3-trihydroxypropyl)-5,6-dihydro-4H-pyran-2-carboxylic acid] |  |  | significant reduction | attenuated | significantly improved | greater | greater
